Like-named read-outs stand apart in the source and are kept apart here.

In general, EC50 refers to the concentration needed to bring the measured effect to its halfway point. The low end stands for an effect from little substance, the high end for a need for much substance.

Experiment [1] has as its target T1, ABCB1 (Homo sapiens, UniProt P08183).
T1 construct: membrane vesicles (Pgp-Glo assay system)
As to the kind of experiment: biochemical.

The target in experiment [2] is T1, ABCB1. Nature of the experiment: biochemical. The source holds these as a separate data set.

T1 sequence (P08183 whole entry): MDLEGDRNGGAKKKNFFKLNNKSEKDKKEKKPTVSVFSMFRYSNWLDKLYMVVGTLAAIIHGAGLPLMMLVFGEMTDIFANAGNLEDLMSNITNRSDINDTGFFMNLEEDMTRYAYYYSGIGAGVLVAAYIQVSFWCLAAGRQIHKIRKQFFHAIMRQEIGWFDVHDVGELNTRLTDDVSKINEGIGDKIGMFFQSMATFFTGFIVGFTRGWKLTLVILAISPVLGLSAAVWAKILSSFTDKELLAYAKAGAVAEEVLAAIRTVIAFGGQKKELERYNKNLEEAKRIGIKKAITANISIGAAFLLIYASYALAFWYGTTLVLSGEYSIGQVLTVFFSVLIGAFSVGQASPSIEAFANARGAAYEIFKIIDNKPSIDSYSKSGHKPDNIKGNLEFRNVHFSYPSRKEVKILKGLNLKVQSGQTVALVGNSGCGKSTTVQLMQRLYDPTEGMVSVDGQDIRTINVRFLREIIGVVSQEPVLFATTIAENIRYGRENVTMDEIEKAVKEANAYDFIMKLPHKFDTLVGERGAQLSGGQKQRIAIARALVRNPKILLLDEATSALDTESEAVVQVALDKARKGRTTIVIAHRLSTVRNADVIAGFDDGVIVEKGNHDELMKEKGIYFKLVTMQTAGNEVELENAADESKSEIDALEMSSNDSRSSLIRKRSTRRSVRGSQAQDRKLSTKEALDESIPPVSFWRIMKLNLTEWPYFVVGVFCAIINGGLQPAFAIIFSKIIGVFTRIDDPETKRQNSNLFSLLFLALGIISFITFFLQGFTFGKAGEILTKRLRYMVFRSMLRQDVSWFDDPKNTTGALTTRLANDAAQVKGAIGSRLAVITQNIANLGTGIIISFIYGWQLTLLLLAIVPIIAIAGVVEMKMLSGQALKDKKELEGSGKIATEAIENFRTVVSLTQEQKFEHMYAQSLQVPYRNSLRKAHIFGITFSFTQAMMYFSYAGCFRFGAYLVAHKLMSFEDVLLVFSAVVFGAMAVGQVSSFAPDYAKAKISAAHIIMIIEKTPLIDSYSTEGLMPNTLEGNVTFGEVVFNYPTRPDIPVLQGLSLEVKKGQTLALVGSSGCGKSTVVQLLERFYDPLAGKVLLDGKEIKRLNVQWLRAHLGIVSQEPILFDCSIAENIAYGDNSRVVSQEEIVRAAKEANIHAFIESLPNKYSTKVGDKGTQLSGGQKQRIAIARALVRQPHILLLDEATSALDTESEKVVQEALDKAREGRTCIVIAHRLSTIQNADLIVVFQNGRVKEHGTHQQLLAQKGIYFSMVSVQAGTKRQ

For `COc1ccc(CNCCC[C@](C)(O)[C@H]2CC[C@]3(C)[C@@H]2[C@H](O)C[C@@H]2[C@@]4(C)CC[C@H](O)C(C)(C)[C@@H]4CC[C@]23C)cc1` [PPD11], the response at ABCB1 [1] was half-maximal at 2380 nM (EC50). This lies in the single-digit micromolar range.
`CC1(C)[C@@H](O)CC[C@]2(C)[C@H]3C[C@@H](O)[C@@H]4[C@@H]([C@@](C)(O)CCCNCc5ccccc5)CC[C@@]4(C)[C@]3(C)CC[C@@H]12` [PPD12] yielded an EC50 on ABCB1 [2] of 1520 nM. That is a single-digit micromolar value.
At ABCB1 [1], `CC(C)=CCC[C@](C)(O)[C@H]1CC[C@]2(C)[C@@H]1[C@H](O)C[C@@H]1[C@@]3(C)CC[C@H](O)C(C)(C)[C@@H]3CC[C@]12C` [PPD, 20(S)-protopanoxadiol] came in with an EC50 of 3130 nM.

(Values after publication PMC4891047, “A 20(S)-protopanoxadiol derivative overcomes multi-drug resistance by antagonizing ATP-binding cassette subfamily B member 1 transporter function” (Oncotarget, 2016).)
